Reference: patent US20210274823A1, “NOVEL TRITERPENE-GLYCOSIDES AS SWEETENERS OR SWEETENER ENHANCER” (priority 2017, published 2021)

Experiment: Organoleptic test of the compounds of formula (I) against sucrose
Design: key to sweetness compared to sucrose: 3: sweeter than the control solution; 2: sweetness comparable with the control solution; 1: less sweet than the control solution but still sweet
Settings: panel of 3-4 panelists; for sweetness compared to sucrose: test compound dissolved in water (Evian) at 400 ppm, control sucrose 20 g/l; for Comment (taste impression): test compound dissolved in water at 400 ppm
Description: The isolated pure compounds were dissolved in non-carbonated mineral water (“Evian”) in a concentration of 0.4 mg/ml (400 ppm). The sweet taste of each sample was compared by a panel of 3-4 panelists with a solution of sucrose in a concentration of 20 g/l.

SMILES	sweetness compared to sucrose	Comment (taste impression)
CC(C)(/C=C/C[C@@](C)(O[C@@H]1O[C@H](CO)[C@@H](O)[C@H](O)[C@H]1O)[C@H]1CC[C@]2(C)[C@@H]1[C@H](O)C[C@@H]1[C@@]3(C)C[C@@H](O)[C@H](O[C@@H]4O[C@H](CO)[C@@H](O)[C@H](O)[C@H]4O[C@@H]4O[C@H](CO)[C@@H](O)[C@H](O)[C@H]4O)C(C)(C)[C@@H]3CC[C@]12C)OO (stereo in doubt) [Compound E]	3	–
CC(C)=CCC[C@](C)(O[C@@H]1O[C@H](CO[C@@H]2OC[C@@H](O)[C@H](O)[C@H]2O)[C@@H](O)[C@H](O)[C@H]1O)[C@H]1CC[C@]2(C)[C@@H]1[C@H](O)CC1[C@@]3(C)C[C@@H](O)[C@H](O[C@@H]4O[C@H](CO)[C@@H](O)[C@H](O)[C@H]4O[C@@H]4O[C@H](CO)[C@@H](O)[C@H](O)[C@H]4O)C(C)(C)C3CC[C@]12C (stereo partly drawn) [Compound A]	2	Slightly hot
CC(C)=CCC[C@](C)(O[C@@H]1O[C@H](CO)[C@@H](O)[C@H](O)[C@H]1O)[C@H]1CC[C@]2(C)[C@@H]1[C@H](O)CC1[C@@]3(C)C[C@@H](O)[C@H](O[C@@H]4O[C@H](CO)[C@@H](O)[C@H](O)[C@H]4O[C@@H]4O[C@H](CO)[C@@H](O)[C@H](O)[C@H]4O)C(C)(C)C3CC[C@]12C (stereo partly drawn) [Compound B]	3	Slightly bitter
C=C(C)C(CC[C@](C)(O[C@@H]1O[C@H](CO[C@@H]2OC[C@@H](O)[C@H](O)[C@H]2O)[C@@H](O)[C@H](O)[C@H]1O)[C@H]1CC[C@]2(C)[C@@H]1[C@H](O)CC1[C@@]3(C)C[C@@H](O)[C@H](O[C@@H]4O[C@H](CO)[C@@H](O)[C@H](O)[C@H]4O[C@@H]4O[C@H](CO)[C@@H](O)[C@H](O)[C@H]4O)C(C)(C)C3CC[C@]12C)OO (stereo partly drawn) [Compound C]	2	–
CC(C)(O)/C=C/C[C@](C)(O[C@@H]1O[C@H](CO)[C@@H](O)[C@H](O)[C@H]1O)[C@H]1CC[C@]2(C)C1[C@H](O)CC1[C@@]3(C)C[C@@H](O)[C@H](O[C@@H]4O[C@H](CO)[C@@H](O)[C@H](O)[C@H]4O[C@@H]4O[C@H](CO)[C@@H](O)[C@H](O)[C@H]4O)C(C)(C)C3CC[C@]12C (stereo partly drawn) [Compound D]	3	–
CC(C)(/C=C/C[C@](C)(O[C@@H]1O[C@H](CO[C@@H]2OC[C@@H](O)[C@H](O)[C@H]2O)[C@@H](O)[C@H](O)[C@H]1O)[C@H]1CC[C@]2(C)C1[C@H](O)CC1[C@@]3(C)C[C@@H](O)[C@H](O[C@@H]4O[C@H](CO)[C@@H](O)[C@H](O)[C@H]4O[C@@H]4O[C@H](CO)[C@@H](O)[C@H](O)[C@H]4O)C(C)(C)C3CC[C@]12C)OO (stereo partly drawn) [Compound G]	2	Slightly bitter
CC(C)=CCC[C@](C)(O[C@@H]1O[C@H](CO)[C@@H](O)[C@H](O)[C@H]1O)[C@H]1CC[C@]2(C)[C@@H]1[C@H](O)CC1[C@@]3(C)C[C@@H](O)[C@H](O[C@@H]4O[C@H](COC5OCC(O)C(O)C5O)[C@@H](O)[C@H](O)[C@H]4O[C@@H]4O[C@H](CO)[C@@H](O)[C@H](O)[C@H]4O)C(C)(C)C3CC[C@]12C (stereo partly drawn) [Compound H]	3	Slightly bitter
C=C(C)C(O)CC[C@](C)(O[C@@H]1O[C@H](CO[C@@H]2OC[C@@H](O)[C@H](O)[C@H]2O)[C@@H](O)[C@H](O)[C@H]1O)[C@H]1CC[C@]2(C)[C@@H]1[C@H](O)CC1[C@@]3(C)C[C@@H](O)[C@H](O[C@@H]4O[C@H](CO)[C@@H](O)[C@H](O)[C@H]4O[C@@H]4O[C@H](CO)[C@@H](O)[C@H](O)[C@H]4O)C(C)(C)C3CC[C@]12C (stereo partly drawn) [Compound I]	2	–
CC1(C)C2CC[C@]3(C)C(C[C@@H](O)[C@@H]4[C@@H]([C@](C)(CCCO)O[C@@H]5O[C@H](CO)[C@@H](O)[C@H](O)[C@H]5O)CC[C@]43C)[C@@]2(C)C[C@@H](O)[C@@H]1O[C@@H]1O[C@H](CO)[C@@H](O)[C@H](O)[C@H]1O[C@@H]1O[C@H](CO)[C@@H](O)[C@H](O)[C@H]1O (stereo partly drawn) [Compound J]	2	–
CC(CO)C(=O)CC[C@](C)(O[C@@H]1O[C@H](CO)[C@@H](O)[C@H](O)[C@H]1O)[C@H]1CC[C@]2(C)[C@@H]1[C@H](O)CC1[C@@]3(C)C[C@@H](O)[C@H](O[C@@H]4O[C@H](CO)[C@@H](O)[C@H](O)[C@H]4O[C@@H]4O[C@H](CO)[C@@H](O)[C@H](O)[C@H]4O)C(C)(C)C3CC[C@]12C (stereo partly drawn) [Compound K]	3	–
CC(CO)C(=O)CC[C@](C)(O[C@@H]1O[C@H](CO)[C@@H](O)[C@H](O)[C@H]1O)[C@H]1CC[C@]2(C)[C@@H]1[C@H](O)CC1[C@@]3(C)C[C@@H](O)[C@H](O[C@@H]4O[C@H](CO)[C@@H](O)[C@H](O)[C@H]4O[C@@H]4O[C@H](CO)[C@@H](O)[C@H](O)[C@H]4O)C(C)(C)C3CC[C@]12C (stereo partly drawn) [Compound L]	2	–
